Assay [1] relates to DLD-1 cells. Briefly: Apoptosis assay (Annexin V/PI, FACS), DLD-1. Format: cell-based, human. As to the method:
We performed an apoptosis assay using DLD-1 and HCT116 cells treated with vehicle or 1 μM or 10 μM of test compounds over the course of three days with Annexin V/P1 stain in combination with FACS analysis. […] This is accompanied by an increase in the population of cells in early and late apoptosis, as well as an increase in the dead cell population over the three days of treatment. […] This effect was more pronounced upon treatment with SR18662 than ML264 or SR15006 (FIGS. 4D-F). When a lower concentration (1 μM) of test compounds was used, only a small increase of the population of cells undergoing early apoptosis was seen after 72 h treatment with SRI8662.
Cell proliferation, cell cycle and apoptosis assays. For cell proliferation experiments, cell cycle, and apoptosis determination, DLD-1 and HCT116 cells were treated with 1 or 10 μM of each compound or with vehicle (DMSO). The cells were collected at 24, 48, and 72 h post-treatment and analyzed as previously described (24). Each experiment was performed in triplicate.

Assay [2] has as its system DLD-1, HCT116, HT29, and SW620 cells. As to the kind of experiment: Cell viability (Cell Titer-Glo) of four CRC cell lines. The conditions noted are these: 24 h, FIGS. 2A-C. It counts as cell-based, human. The procedure:
SR18662 is potent inhibitor of CRC cell growth in vitro. […]. To examine the impact of these compounds on viability of CRC cell lines, we performed cell proliferation and cell growth assays using DLD-1 and HCT116 CRC cells. […] […]. Cell viability. DLD-1, HCT116, HT29, and SW620 cells were seeded in 96 well plate format and treated with DMSO or with compounds dissolved in DMSO in the range of 0.001 to 20 μM final concertation for 24 h and analyzed with the Cell Titer-Glo luciferase assay system (Promega) using a SpectraMax M3 (Molecular Devices) plate reader. The IC50 values were calculated using GraphPad Prism version 5.00 for Windows (GraphPad Software).
For orientation: In ATP-based viability assays light output follows the ATP content of the culture.

The subject of assay [3] is DLD-1, HCT-116, HT-29, and SW-620 colorectal cancer cell lines. As to the kind of experiment: MTT assays for blocking growth of colorectal cancer cell lines (range over four lines). Format: cell-based. The conditions noted are these: Homo sapiens; DLD-1, HCT-116, HT-29, SW-620. The source says:
(§1) The observed activity is greater than that previously seen for ML264.

Assay [4] deals with human KLF5 promoter. Briefly: KLF5 promoter activity luciferase assay in DLD-1/pGL4.18hKLF5p cells. It counts as cell-based. The following applies: Homo sapiens, DLD-1. As to the method:
To examine the impact of these compounds on viability of CRC cell lines, we performed cell proliferation and cell growth assays using DLD-1 and HCT116 CRC cells. […] KLF5 promoter activity assay. DLD-1/pGL4.18hKLF5p cells were seeded in 96 well plate format and treated with DMSO or with test compounds dissolved in DMSO in the range of 0.001 to 20 μM final concentration for 24 h and the human KLF5 promoter activity was determined with the ONE-Glo luciferase assay system (Promega) using a SpectramMax M3 (Molecular Devices) plate reader. The IC50 values were calculated using GraphPad Prism version 5.00 for Windows (GraphPad Software) (22).

The subject of assay [5] is Cyclin D1, E, A2, and B1. Briefly: Western blot of cyclin levels. The conditions noted are these: DLD-1 and HCT116, 1 μM or 10 μM, 72 h. Format: cell-based, human. From the text: Cyclins and their appropriate cyclin-dependent kinases form a regulatory network that allow cells to progress through the cell cycle (39, 40). […] SR15006, or SR18662, as compared to vehicle-treated cells. Thus, we investigated if these changes are accompanied by differences in the expression levels of cyclins. We focused our attention on Cyclin D1, E, A2, and B1, as we have previously shown that ML264 has inhibitory effect on their levels (24). […] Additionally, in contrast to ML264 or SR15006, SR18862 induced apoptosis and cell death.
Western blot analysis. Total protein was extracted from cells with Laemmli buffer and the analysis was performed as described previously (24).

Assay [6] concerns HT-29 colorectal cancer cell line. Briefly: MTT growth assay, HT-29. It counts as cell-based. The conditions noted are these: Homo sapiens, Table 1.
Source text: as §1
For orientation: Tetrazolium assays rely on reduction of a dye to a coloured formazan, in cell work by metabolically active cells.

Assay [7] deals with SW-620 colorectal cancer cell line. Briefly: MTT growth assay, SW-620. The conditions noted are these: Homo sapiens, Table 1. It counts as cell-based.
Source text: as §1

The subject of assay [8] is DLD-1-derived tumor xenografts. As to the kind of experiment: DLD-1 xenograft tumor growth in nude mice. It counts as in vivo, mouse. As to the method:
SR18862 inhibits the growth of CRC xenografts in vivo. To evaluate SRI8662 in an in vivo model we used CRC cells for a mouse xenograft study. As described in more detail in the Examples section, nude mice were injected with DLD-1 CRC cells. Tumors were allowed to grow to an approximate size of 100 mm^3, and then mice were injected with vehicle or with varied concentrations of SR18662, given once a day or twice a day for five days, followed by two days without injection, and then followed by five days with injections. The experiment was completed the day after the last injection. […] Significant differences in tumor size are apparent at the end of the treatment schedule (FIG. 6B). To further characterize the impact of SR18662 on the features of isolated tumors, we compared vehicle-treated mice with mice that had been treated with SR18662 twice a day. […] Because SR18662 had induced cell apoptosis and death in the in vitro setting, we stained the xenografts with PanCK and TUNEL to estimate the levels of apoptosis in the in vivo context.
Xenografts. All mice studies were approved by the Stony Brook University Institutional Animal Care and Use Committee (IACUC) and performed in accordance with institutional policies and NIH guidelines. […] Tumor volume was determined by caliper measurement and calculated by the established method (25). […] Mice were monitored and weighed every two days. […]

Like-named read-outs stand apart in the source and are kept apart here.

Broadly, the IC50 is the concentration at which inhibition is half-maximal.

Consider `CS(=O)(=O)N1CCN(C(=O)CNC(=O)/C=C/c2ccc(Cl)c(Cl)c2)CC1` [Example 9, (E)-3-(3,4-dichlorophenyl)-N-(2-(4-(methylsulfonyl)piperazin-1-yl)-2-oxoethyl)acrylamide], for which the “healthy cell count and apoptosis” value in assay [1] (DLD-1, 1 μM, 48 h and 72 h) is “decrease in healthy cell count at 48 h and 72 h and an increase in early and late apoptosis”. The “population of healthy cells” value in assay [1] (DLD-1, 10 μM, 48 and 72 h) is “significant decrease in the population of healthy cells”. In addition, in assay [2], the “cell viability IC50 relative to ML264 and SR15006” value was “about one log unit lower than those for ML264 and SR15006”. The EC50 in assay [3] was 1.74 nM; in assay [4] (Table 2, read-out: Approximate potency (EC50 · mol/L) (luciferase)), 4.4 nM; in assay [6], 40 nM; in assay [7] it was 22 nM. Besides, the IC50 worked out at 4.4 nM in assay [4] (24 h treatment, FIG. 1B, read-out: IC50, human KLF5 promoter activity); 4.4 nM in assay [4] (Table 1, comparison of ML264 and SR18662, read-out: luciferase IC50). Besides, in assay [5], the levels of cyclins result is on record as “significant reduction in the levels of tested cyclins”. Moreover, in assay [8] (i.p., 5-25 mg/kg once or twice a day), the “tumor growth vs vehicle-treated mice” value was “dose-dependent reduction in tumor growth”. Besides, in assay [8] (once a day 10 mg/kg), the “growth of CRC xenografts” value is “strong inhibitory effects”.

The values are drawn from patent US12486227B2, “Small molecules for cancer therapy that reduce the expression of transcription factors KLF5 and EGR-1” (University of Florida Research Foundation, Incorporated, priority 2019, dated 2025).
